Reference: patent publication US12410160B2 (Gilead Sciences, Inc., priority 2021, dated 2025)

Columns and labels:
human KHK-C = human KHK-C (Homo sapiens (Human), UniProt P50053); test: KHK Biochemical Assay (IC50), ADP-Glo, KHK-C; conditions: ADP-Glo; average of at least two separate assays
Method in brief: (§1)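 His-tagged enzyme expressed in BL21 (DE3), Ni-NTA purified. Compounds, serially diluted 1:3 in DMSO, pre-incubated 30 min with enzyme in 50 mM Hepes pH 7.4, 140 mM KCl, 5 mM MgCl2, 0.01% Triton-X, then ATP and fructose added; 4 h at room temperature. ADP formation read by ADP-Glo luminescence.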

human KHK-A = human KHK-A (Homo sapiens (Human), UniProt P50053); test: KHK Biochemical Assay (IC50), ADP-Glo, KHK-A; conditions: ADP-Glo; average of at least two separate assays
Method in brief: as §1

Sequence of human KHK-C (P50053 whole entry): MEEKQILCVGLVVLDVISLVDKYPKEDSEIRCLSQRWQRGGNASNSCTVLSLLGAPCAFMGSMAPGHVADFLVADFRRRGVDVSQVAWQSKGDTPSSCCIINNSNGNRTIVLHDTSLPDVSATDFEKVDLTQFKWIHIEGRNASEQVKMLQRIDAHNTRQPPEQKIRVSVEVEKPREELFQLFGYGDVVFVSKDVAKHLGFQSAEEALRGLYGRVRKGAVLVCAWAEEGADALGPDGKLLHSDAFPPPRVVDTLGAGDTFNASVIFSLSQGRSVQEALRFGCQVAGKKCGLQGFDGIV
Sequence of human KHK-A (P50053 other isoform, or with tags, fused parts or gaps): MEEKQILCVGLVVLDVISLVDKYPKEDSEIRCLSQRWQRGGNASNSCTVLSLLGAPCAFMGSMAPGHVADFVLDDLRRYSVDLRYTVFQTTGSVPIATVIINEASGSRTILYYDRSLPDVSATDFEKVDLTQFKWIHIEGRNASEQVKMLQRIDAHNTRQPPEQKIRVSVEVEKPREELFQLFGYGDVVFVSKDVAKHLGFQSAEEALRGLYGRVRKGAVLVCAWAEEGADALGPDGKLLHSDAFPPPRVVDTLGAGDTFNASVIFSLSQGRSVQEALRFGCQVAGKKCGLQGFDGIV

Row | SMILES | IC50 (human KHK-C) | IC50 (human KHK-A)
1 | C[C@H]1CCN1c1nc2c(c(-c3cccc(S(=N)(=O)c4ccc(C#N)cc4C4CC4)c3)n1)CCC2 (stereo partly drawn) [Example 847] | 118 nM | 200 nM
2 | COc1cc(S(=N)(=O)c2cccc(-c3nc(N4CC[C@@H]4C)nc4c3CCC4)c2)ccc1C#N (stereo partly drawn) [Example 848, 2-methoxy-4-(3-(2-((S)-2-methylazetidin-1-yl)-6,7-dihydro-5H-cyclopenta[d]pyrimidin-4-yl)phenylsulfonimidoyl)benzonitrile] | 186 nM | 249 nM
3 | COc1cc(S(=N)(=O)c2cc(-c3nc(N4CC[C@@H]4C)nc4c3CCC4)ccc2OC)ccc1C#N (stereo partly drawn) [Example 850, 2-methoxy-4-(2-methoxy-5-(2-((S)-2-methylazetidin-1-yl)-6,7-dihydro-5H-cyclopenta[d]pyrimidin-4-yl)phenylsulfonimidoyl)benzonitrile] | 141 nM | 59.6 nM
4 | C[C@H]1CCN1c1nc2c(c(-c3ccc4ncn(C)c4c3)n1)CCC2 [Example 853, (S)-1-methyl-6-(2-(2-methylazetidin-1-yl)-6,7-dihydro-5H-cyclopenta[d]pyrimidin-4-yl)-1H-benzo[d]imidazole] | 35.3 nM | 73.2 nM
5 | C[C@H]1CCN1c1nc2c(c(-c3ccc4c(c3)CCCCC4NS(C)(=O)=O)n1)CCC2 (stereo partly drawn) [Example 854, N-(2-(2-((S)-2-methylazetidin-1-yl)-6,7-dihydro-5H-cyclopenta[d]pyrimidin-4-yl)-6,7,8,9-tetrahydro-5H-benzo[7]annulen-5-yl)methanesulfonamide] | 442 nM | 543 nM
6 | C[C@H]1CCN1c1nc2c(c(-c3ccc4c(c3)NC(=O)CNC4)n1)CCC2 [Example 855, (S)-8-(2-(2-methylazetidin-1-yl)-6,7-dihydro-5H-cyclopenta[d]pyrimidin-4-yl)-1,3,4,5-tetrahydro-2H-benzo[e][1,4]diazepin-2-one] | 80.5 nM | 84.9 nM
7 | C[C@H]1CCN1c1nc2c(c(-c3ccc4c(c3)N(C)C(=O)CNC4)n1)CCC2 [Example 856, (S)-1-methyl-8-(2-(2-methylazetidin-1-yl)-6,7-dihydro-5H-cyclopenta[d]pyrimidin-4-yl)-1,3,4,5-tetrahydro-2H-benzo[e][1,4]diazepin-2-one] | 175 nM | 143 nM
8 | C[C@H]1CCN1c1nc2c(c(-c3nc4ccc(C(N)=O)cc4s3)n1)CCC2 [Example 857, (S)-2-(2-(2-methylazetidin-1-yl)-6,7-dihydro-5H-cyclopenta[d]pyrimidin-4-yl)benzo[d]thiazole-6-carboxamide] | 149 nM | 141 nM
9 | C[C@H]1CCN1c1nc2c(c(-c3ccc4c(=O)[nH]c(=O)n(C)c4c3)n1)CCC2 [Example 858, (S)-1-methyl-7-(2-(2-methylazetidin-1-yl)-6,7-dihydro-5H-cyclopenta[d]pyrimidin-4-yl)quinazoline-2,4(1H,3H)-dione] | 43.6 nM | 18 nM
10 | C[C@H]1CCN1c1nc2c(c(-c3ccc4c(c3)CCNC4C(F)(F)F)n1)CCC2 (stereo partly drawn) [Example 859, 6-(2-((S)-2-methylazetidin-1-yl)-6,7-dihydro-5H-cyclopenta[d]pyrimidin-4-yl)-1-(trifluoromethyl)-1,2,3,4-tetrahydroisoquinoline] | 301 nM | 434 nM
11 | C[C@H]1CCN1c1nc2c(c(-c3cccc(S(C)(=N)=O)n3)n1)CCC2 (stereo partly drawn) [Example 860, imino(methyl)(6-(2-((S)-2-methylazetidin-1-yl)-6,7-dihydro-5H-cyclopenta[d]pyrimidin-4-yl)pyridin-2-yl)-λ^6-sulfanone] | 224 nM | 191 nM
12 | COc1cc(-c2nc(N3CC[C@@H]3C)nc3c2CCC3)ccc1CS(N)(=O)=O [Example 862, (S)-(2-methoxy-4-(2-(2-methylazetidin-1-yl)-6,7-dihydro-5H-cyclopenta[d]pyrimidin-4-yl)phenyl)methanesulfonamide] | 76.4 nM | 48.1 nM
13 | C[C@H]1CCN1c1nc2c(c(-c3cccc(Sc4ccc(C#N)cc4)c3)n1)CCC2 [Example 863, (S)-4-((3-(2-(2-methylazetidin-1-yl)-6,7-dihydro-5H-cyclopenta[d]pyrimidin-4-yl)phenyl)thio)benzonitrile] | > 1000 nM | > 1000 nM
14 | C[C@H]1CCN1c1nc2c(c(-c3cc4c(s3)C(=O)NC(C)(C)N4)n1)CCC2 [Example 866, (S)-2,2-dimethyl-6-(2-(2-methylazetidin-1-yl)-6,7-dihydro-5H-cyclopenta[d]pyrimidin-4-yl)-2,3-dihydrothieno[3,2-d]pyrimidin-4(1H)-one] | 27.7 nM | 18.9 nM
15 | C[C@H]1CCN1c1nc2c(c(-c3cc4c(N)n[nH]c4cn3)n1)CCC2 [Example 867, (S)-5-(2-(2-methylazetidin-1-yl)-6,7-dihydro-5H-cyclopenta[d]pyrimidin-4-yl)-1H-pyrazolo[3,4-c]pyridin-3-amine] | > 1000 nM | > 1000 nM
16 | C[C@H]1CCN1c1nc2c(c(-c3cc4c(N)nn(C(=O)OC(C)(C)C)c4cn3)n1)CCC2 [Example 868, tert-butyl (S)-3-amino-5-(2-(2-methylazetidin-1-yl)-6,7-dihydro-5H-cyclopenta[d]pyrimidin-4-yl)-1H-pyrazolo[3,4-c]pyridine-1-carboxylate] | 230 nM | 158 nM
17 | C[C@H]1CCN1c1nc2c(c(-c3ccc4c(c3)C3(CC3)C(=O)NC4=O)n1)CCC2 [Example 870, (S)-6′-(2-(2-methylazetidin-1-yl)-6,7-dihydro-5H-cyclopenta[d]pyrimidin-4-yl)-1′H-spiro[cyclopropane-1,4′-isoquinoline]-1′,3′(2′H)-dione] | 69.5 nM | 10.9 nM
18 | C[C@H]1CCN1c1nc2c(c(-c3cccc(-c4noc(=O)[nH]4)c3)n1)CCC2 [Example 872, (S)-3-(3-(2-(2-methylazetidin-1-yl)-6,7-dihydro-5H-cyclopenta[d]pyrimidin-4-yl)phenyl)-1,2,4-oxadiazol-5(4H)-one] | 28.9 nM | 27 nM
19 | C[C@H]1CCN1c1nc2c(c(-c3ccc(S(=N)(N)=O)cc3)n1)CCC2 (stereo partly drawn) [Example 874, 4-(2-((S)-2-methylazetidin-1-yl)-6,7-dihydro-5H-cyclopenta[d]pyrimidin-4-yl)benzenesulfonimidamide] | 72.3 nM | 88.4 nM
20 | C[C@H]1CCN1c1nc2c(c(-c3ccc4c(c3)C3(CC4)CNC(=O)C3)n1)CCC2 (stereo partly drawn) [Example 875, 6-(2-((S)-2-methylazetidin-1-yl)-6,7-dihydro-5H-cyclopenta[d]pyrimidin-4-yl)-2,3-dihydrospiro[indene-1,3′-pyrrolidin]-5′-one] | 58 nM | 67 nM
21 | C[C@H]1CCN1c1nc2c(c(-c3cccc(-c4nnn[nH]4)c3)n1)CCC2 [Example 876, (S)-4-(3-(1H-tetrazol-5-yl)phenyl)-2-(2-methylazetidin-1-yl)-6,7-dihydro-5H-cyclopenta[d]pyrimidine] | 99.4 nM | 70.4 nM

Stronger by IC50 (human KHK-C), values ahead:

Row | IC50 (human KHK-C) | IC50 (human KHK-A) | SMILES
22 | 25.4 nM | 16.3 nM | COc1ccc(-c2nc(N3CC[C@@H]3C)nc3c2CCC3)cc1S(=N)(=O)c1ccc(C#N)cc1Cl (stereo partly drawn) [Example 849, 3-chloro-4-(2-methoxy-5-(2-((S)-2-methylazetidin-1-yl)-6,7-dihydro-5H-cyclopenta[d]pyrimidin-4-yl)phenylsulfonimidoyl)benzonitrile]
23 | 17.8 nM | 10.1 nM | COc1ccc(-c2nc(N3CC[C@@H]3C)nc3c2CCC3)cc1S(=N)(=O)c1ccc(C#N)cc1 (stereo partly drawn) [Example 851, 4-(2-methoxy-5-(2-((S)-2-methylazetidin-1-yl)-6,7-dihydro-5H-cyclopenta[d]pyrimidin-4-yl)phenylsulfonimidoyl)benzonitrile]
24 | 18.9 nM | 21.8 nM | C[C@H]1CCN1c1nc2c(c(-c3ccc4[nH]cnc4c3)n1)CCC2 [Example 852, (S)-5-(2-(2-methylazetidin-1-yl)-6,7-dihydro-5H-cyclopenta[d]pyrimidin-4-yl)-1H-benzo[d]imidazole]
25 | 15.2 nM | 4.9 nM | CCS(=N)(=O)c1cc(-c2nc(N3CC[C@@H]3C)nc3c2CCC3)ccc1OC (stereo partly drawn) [Example 861, ethyl(imino)(2-methoxy-5-(2-((S)-2-methylazetidin-1-yl)-6,7-dihydro-5H-cyclopenta[d]pyrimidin-4-yl)phenyl)-λ^6-sulfanone]
26 | 6.3 nM | 10 nM | CCc1cc(-c2nc(N3CC[C@@H]3C)nc3c2CCC3)ccc1C1(N)COC1 [Example 864, (S)-3-(2-ethyl-4-(2-(2-methylazetidin-1-yl)-6,7-dihydro-5H-cyclopenta[d]pyrimidin-4-yl)phenyl)oxetan-3-amine]
27 | 17.3 nM | 25.4 nM | C[C@H]1CCN1c1nc2c(c(-c3ccc4c(c3)C3(CCC3)CNC4=O)n1)CCC2 [Example 865, (S)-6′-(2-(2-methylazetidin-1-yl)-6,7-dihydro-5H-cyclopenta[d]pyrimidin-4-yl)-2′,3′-dihydro-1′H-spiro[cyclobutane-1,4′-isoquinolin]-1′-one]
28 | 21.6 nM | 5.9 nM | COCCS(=N)(=O)c1cc(-c2nc(N3CC[C@@H]3C)nc3c2CCC3)ccc1OC (stereo partly drawn) [Example 869, imino(2-methoxy-5-(2-((S)-2-methylazetidin-1-yl)-6,7-dihydro-5H-cyclopenta[d]pyrimidin-4-yl)phenyl)(2-methoxyethyl)-λ^6-sulfanone]
29 | 23.4 nM | 50.4 nM | C[C@H]1CCN1c1nc2c(c(-c3ccc(-c4noc(=O)[nH]4)cc3)n1)CCC2 [Example 871, (S)-3-(4-(2-(2-methylazetidin-1-yl)-6,7-dihydro-5H-cyclopenta[d]pyrimidin-4-yl)phenyl)-1,2,4-oxadiazol-5(4H)-one]
30 | 23.6 nM | 24.1 nM | C[C@H]1CCN1c1nc2c(c(-c3cccc(S(=N)(N)=O)c3)n1)CCC2 (stereo partly drawn) [Example 873, 3-(2-((S)-2-methylazetidin-1-yl)-6,7-dihydro-5H-cyclopenta[d]pyrimidin-4-yl)benzenesulfonimidamide]
